Patent publication US11779664B2, “Targeted contrast agents for MRI of alpha-synuclein deposition” (Texas Children's Hospital, priority 2020, dated 2023)
Entries after “also recorded” stand apart in the source; their conditions may differ.

Experiments:
[1] = system: β-amyloid plaques in human AD brain tissue; experiment: Fluorescent staining of post-mortem human AD brain tissue sections; conditions: cortical sections, co-stained with 4G8 antibody
Excerpt: To assess the observed selectivity in α-syn versus Aβ fibril binding on aggregates in human tissue, equimolar concentrations of ligands 8, 32, and 37 were further evaluated on PD tissue as described above, alongside cortical sections from neuropathologically verified post-mortem brain samples of AD patients. […] A similar labeling pattern and efficiency are observed in the antibody channel (column III). […] The antibody, anti-β-Amyloid, 17-24 Antibody (4G8), highlights both dense core and diffuse Aβ pathology (column III).
Midbrain tissue (Frontal cortex 5590) was embedded with Tissue-Tek O.C.T. Compound and kept in liquid nitrogen for 30 mins. The embedded tissue was sliced into 30 μm thick sections with Lecia Biosystems Cryostats under −20° C. and mounted onto Precleaned Microscope Slides. The section was washed with 1× PBST two times and then loaded into 10% formalin solution for 20 mins. The section was washed with 1× PBS three times and permeabilized with 0.1% Triton-X 100 for 10 min. The section was washed with 1× PBS two times and incubated with 2% normal Donkey serum at room temperature for 1 h. […] The tissue was imaged with Lecia DMi8 Motorized Fluorescence Microscope using standard excitation/emission filters for Alexa Fluor 488 or Alexa Fluor 647.

[2] = molecular target: T1, α-syn fibrils (Homo sapiens, UniProt P37840); experiment: α-Syn fibril/ligand binding assay (fluorescence saturation binding); conditions: for selectivity for α-syn versus Aβ fibrils (comparison of Kd values): Kd Aβ fibrils vs Kd α-syn fibrils; for Kd: synthetic α-syn fibrils 2.5 μM, PBS, 37° C., 1 h
T1 construct: purchased R-peptide S-1001-2
Protocol: To this suspension was added 0.2 mL phosphate buffer (10 mM, pH 7.5). The soluble materials were removed by spinning for 5 min in a centrifuge (18000 g/s). The process was repeated four times. After the fourth time, the peptide was transferred into a microtube (200 μl), and 2.5 μl of 300 mM MnCl (made in water) was added. […] The fibrils formed were spun down at 21,000 g/s for 6 min. The supernatant was discarded, and the fibril pellet was resuspended in 200 μl PBS buffer (pH=7.4).
The mixture was incubated at 37° C. for 1 h with shaking. The mixture was spun down at 21,000 g/s for 15 min to separate the fibrils. The precipitate was washed twice with Tris-HCl and resuspended in 200 μL buffer. […] All data points were performed in triplicate. The Kd and the maximal number of binding sites (Bmax) values were determined by fitting the data to the equation Y=Bmax×X/(X+Kd) by nonlinear regression using MATLAB software (R2019B).

[3] = molecular target: T2, α-syn pathology (Lewy pathology) in human PD brain tissue (Homo sapiens, UniProt P37840); experiment: Fluorescent staining of post-mortem human PD brain tissue sections; conditions: frontal cortex sections, co-stained with Syn211 or Syn303, confocal microscopy
T2 construct: tissue NIH Neurobiobank; host or cells: post-mortem human PD brain sections (frontal cortex, pons)
Protocol: Sections from the pons and frontal-cortex of the PD brain were permeabilized and treated sequentially with antibody [Anti-alpha-Synuclein (aa 121-125) Antibody, clone Syn 211] and 1 μM solution of each compound and visualized by confocal microscopy. […] Column II depicts ligand fluorescence. Column III depicts fluorescence from the antibody. Column IV is a composite image created by merging the first three images. […] The pattern and labeling intensity appear similar in the antibody channel. […] In up close Z-stacked images of the treated tissue (Row C), the pathology appears to surround dark holes (arrows) in the ligand and antibody channels.
To further characterize the sites labeled by the ligands and antibody Syn211 tissue staining experiments, contiguous cortical sections were treated with compound 8 and then either Syn211 or Syn303. As expected, the sections treated with compound 8 and Syn211 (FIG. 17, first row) show identical ligand and antibody labeling patterns that colocalize in the composite image. Both the ligand and antibody appear to label all forms of pathology present on the tissue. […]
Midbrain tissue (Frontal cortex 5469) was embedded with Tissue-Tek O.C.T. Compound and kept in liquid nitrogen for 30 min. […] The tissue was imaged with Lecia DMi8 Motorized Fluorescence Microscope using standard excitation/emission filters for Alexa Fluor 488 or Alexa Fluor 647.

Row | Compound | labeling of Aβ pathology in AD brain sections [1] | selectivity for α-syn versus Aβ fibrils (comparison of Kd values) [2] [fold] | Kd [2] [nM] | labeling of Lewy pathology in PD brain sections [3]
1 | COc1cc(/C=C/C=C2\Cc3ccccc3C2=O)ccc1O [compound 8, (E)-2-((E)-3-(4-Hydroxy-3-methoxyphenyl)allylidene)-2,3-dihydro-1H-inden-1-one] | mostly dense core Aβ plaques | 14.4 | 9.7 | avidly labels Lewy pathology; also recorded: labels all conformations of the pathology; also recorded: avid labeling of both large and fine deposits of the pathology
2 | O=C(O)c1ccc(-c2ccc(/C=C/C=C3\Cc4ccc(O)cc4C3=O)cc2)cc1 [compound 32, 4′-((E)-3-((E)-6-Hydroxy-1-oxo-1,3-dihydro-2H-inden-2-ylidene)prop-1-en-1-yl)-[1,1′-biphenyl]-4-carboxylic acid] |  | 26 | 18.8 | avid labeling of Lewy pathology
